According to the supplement of paper PMC11061612:

Legend:
[1] = compound: Cn1cnc2c(F)c(Nc3ccc(Br)cc3Cl)c(C(=O)NOCCO)cc21 [Selumetinib]; details: max 10 µM
How it was run: (§1)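 Viability was measured with CellTiter-Glo 2.0 luminescence after 72 hours of dosing at a final DMSO of typically 0.2%, and scaled between blank-well and DMSO-well means. Beforehand, cancer cell lines sat 24 hours at 37°C and 5% CO2 in 1536-well plates in 7.5 μl DMEM/F12 or RPMI with 10% FBS. A non-linear mixed effects model fitted two-parameter logistic curves to the dose responses. The single-agent IC50 comes from these fits.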

[2] = compound: C[C@@H](c1ccc2nccn2c1)n1nnc2ncc(-c3cnn(C)c3)nc21 [Savolitinib]; details: max 1 µM
How it was run: as §1

[3] = compound: C[C@@H](Oc1cc(-c2cnn(C3CCNCC3)c2)cnc1N)c1c(Cl)ccc(F)c1Cl [Crizotinib]; details: max 10 µM
How it was run: as §1

[4] = compound: Cc1nc(-c2cn3c(n2)-c2ccc(-c4cnn(C(C)(C)C(N)=O)c4)cc2OCC3)n(C(C)C)n1 [Taselisib]; details: max 10 µM
How it was run: as §1

[5] = compound: CC1=C(C(=CC=C1)Cl)NC(=O)C2=CN=C(S2)NC3=CC(=NC(=N3)C)N4CCN(CC4)CCO [Dasatinib]; details: max 2 µM
How it was run: as §1

[6] = compound: CC1=CN2[C@@H](C1)C=NC3=CC(=C(C=C3C2=O)OC)OCCCCCOC4=C(C=C5C(=C4)N=C[C@@H]6CC(=CN6C5=O)C)OC [SG3199]; details: max 0.001 µM
How it was run: as §1

[7] = compound: N#Cc1cnc(Nc2cc(NC[C@H]3CNCCO3)c(C(F)(F)F)cn2)cn1 [SRA737]; details: max 10 µM
How it was run: as §1

[8] = compound: O=C(c1cc(Cc2n[nH]c(=O)c3ccccc23)ccc1F)N1CCN(C(=O)C2CC2)CC1 [Olaparib]; details: max 10 µM
How it was run: as §1

[9] = compound: O=c1[nH]cc(F)c(=O)[nH]1 [5-Fluorouracil]; details: max 20 µM
How it was run: as §1

[10] = compound: COc1cccc(OCCCN)c1-c1cc(Nc2cnc(C#N)cn2)n[nH]1 [Prexasertib]; details: max 1 µM
How it was run: as §1

[11] = compound: C1CN(CCC1(C(=O)N[C@@H](CCO)C2=CC=C(C=C2)Cl)N)C3=NC=NC4=C3C=CN4 [AZD5363]; details: max 10 µM
How it was run: as §1

[12] = compound: CCN(CCO)CCCOc1ccc2c(Nc3cc(CC(=O)Nc4cccc(F)c4)[nH]n3)ncnc2c1 [AZD2811]; details: max 1 µM
How it was run: as §1

[13] = compound: COc1cc([C@@H]2c3cc4c(cc3[C@@H](O[C@@H]3O[C@@H]5CO[C@@H](C)O[C@H]5[C@H](O)[C@H]3O)[C@H]3COC(=O)[C@H]23)OCO4)cc(OC)c1O [Etoposide]; details: max 10 µM
How it was run: as §1

[14] = compound: CC(=O)c1c(C)c2cnc(Nc3ccc(N4CCNCC4)cn3)nc2n(C2CCCC2)c1=O [Palbociclib]; details: max 10 µM
How it was run: as §1

[15] = compound: CC(=O)Nc1cccc(-n2c(=O)n(C3CC3)c(=O)c3c(Nc4ccc(I)cc4F)n(C)c(=O)c(C)c32)c1 [Trametinib]; details: max 1 µM
How it was run: as §1

[16] = compound: COc1cccc2c1C(=O)c1c(O)c3c(c(O)c1C2=O)C[C@@](O)(C(=O)CO)C[C@@H]3O[C@H]1C[C@H](N)[C@H](O)[C@H](C)O1 [Doxorubicin]; details: max 1 µM
How it was run: as §1

[17] = compound: NC1(c2ccc(-c3nc4ccn5c(=O)[nH]nc5c4cc3-c3ccccc3)cc2)CCC1 [MK-2206]; details: max 10 µM
How it was run: as §1

[18] = compound: C[C@@H]1COCCN1C2=NC(=NC(=C2)C3(CC3)[S@](=N)(=O)C)C4=C5C=CNC5=NC=C4 [AZD6738]; details: max 10 µM
How it was run: as §1

[19] = compound: COc1cc2ncnc(Nc3ccc(F)c(Cl)c3)c2cc1OCCCN1CCOCC1 [Gefitinib]; details: max 10 µM
How it was run: as §1

[20] = compound: COc1cc(Nc2ncc3c(n2)-c2ccc(Cl)cc2C(c2c(F)cccc2OC)=NC3)ccc1C(=O)O [Alisertib]; details: max 10 µM
How it was run: as §1

[21] = compound: C[C@@H](Nc1cc(F)cc(F)c1)c1cc(C(=O)N(C)C)cc2c(=O)cc(N3CCOCC3)oc12 [AZD8186]; details: max 10 µM
How it was run: as §1

[22] = compound: CS(=O)(=O)CCNCc1ccc(-c2ccc3ncnc(Nc4ccc(OCc5cccc(F)c5)c(Cl)c4)c3c2)o1 [Lapatinib]; details: max 10 µM
How it was run: as §1

[23] = compound: COc1nnc2ccc(N3CCC(c4ccc(OCCN5CCN(C)C(=O)[C@H]5C)cc4)CC3)nn12 [AZD5153]; details: max 1 µM
How it was run: as §1

[24] = compound: C=CCn1c(=O)c2cnc(Nc3ccc(N4CCN(C)CC4)cc3)nc2n1-c1cccc(C(C)(C)O)n1 [AZD1775]
How it was run: as §1

[25] = compound: C1CC(C1)(C(=O)[O-])C(=O)[O-].N.N.[Pt+2] [Carboplatin]; details: max 10 µM
How it was run: as §1

[26] = compound: CN(C)CCCOc1ccc(-c2ccc3ncc4c(c3c2)n(C2CCOCC2)c(=O)n4C)cn1 [AZD0156]
How it was run: as §1

[27] = compound: Cc1cc2ncnn2cc1Nc1ncc2c(n1)n(C1CCOCC1)c(=O)n2C [AZD7648]; details: max 10 µM
How it was run: as §1

[28] = compound: Cc1c2c(nn1C)CSCc1cc(n(C)n1)CSc1cc(c3ccccc3c1)OCCCc1c(C(=O)O)n(C)c3c-2c(Cl)ccc13 [AZD5991]; details: max 1 µM
How it was run: as §1

[29] = compound: CN(CC[C@H](CSC1=CC=CC=C1)NC2=C(C=C(C=C2)S(=O)(=O)NC(=O)C3=CC=C(C=C3)N4CCC(CC4)[C@H](C5=CC=CC=C5C6=CC=C(C=C6)Cl)O)S(=O)(=O)C(F)(F)F)CCO [AZD4320]; details: max 1 µM
How it was run: as §1

[30] = compound: Nc1ccn([C@@H]2O[C@H](CO)[C@@H](O)C2(F)F)c(=O)n1 [Gemcitabine]; details: max 0.3 µM
How it was run: as §1

[31] = compound: O=C(Nc1ccc2[nH]nc(-c3ccncc3)c2c1)[C@@H]1CCN(CC(=O)N2CCN(c3ccc(-c4ncccn4)cc3)CC2)C1; details: max 5 µM
How it was run: as §1

[32] = compound: CC(=O)O[C@H]1C(=O)[C@@]2(C)[C@H]([C@H](OC(=O)c3ccccc3)[C@]3(O)C[C@H](OC(=O)[C@H](O)[C@@H](NC(=O)c4ccccc4)c4ccccc4)C(C)=C1C3(C)C)[C@]1(OC(C)=O)CO[C@@H]1C[C@@H]2O [Paclitaxel]; details: max 3 µM
How it was run: as §1

[33] = compound: CC1(C)CCC(CN2CCN(c3ccc(C(=O)NS(=O)(=O)c4ccc(NCC5CCOCC5)c([N+](=O)[O-])c4)c(Oc4cnc5[nH]ccc5c4)c3)CC2)=C(c2ccc(Cl)cc2)C1 [Venetoclax]; details: max 1 µM
How it was run: as §1

[34] = compound: CCc1c2c(nc3ccc(O)cc13)-c1cc3c(c(=O)n1C2)COC(=O)[C@]3(O)CC [SN-38]; details: max 0.3 µM
How it was run: as §1

[35] = compound: CC(C)n1c(=O)n(C)c2cnc3cc(F)c(-c4ccc(OCCCN5CCCCC5)nc4)cc3c21 [AZD1390]; details: max 0.3 µM
How it was run: as §1

Cell Line	IC50, cell viability 72 h [1]	IC50, cell viability 72 h [2]	IC50, cell viability 72 h [3]	IC50, cell viability 72 h [4]	IC50, cell viability 72 h [5]	IC50, cell viability 72 h [6]	IC50, cell viability 72 h [7]	IC50, cell viability 72 h [8]	IC50, cell viability 72 h [9]	IC50, cell viability 72 h [10]	IC50, cell viability 72 h [11]	IC50, cell viability 72 h [12]	IC50, cell viability 72 h [13]	IC50, cell viability 72 h [14]	IC50, cell viability 72 h [15]	IC50, cell viability 72 h [16]	IC50, cell viability 72 h [17]	IC50, cell viability 72 h [18]	IC50, cell viability 72 h [19]	IC50, cell viability 72 h [20]	IC50, cell viability 72 h [21]	IC50, cell viability 72 h [22]	IC50, cell viability 72 h [23]	IC50, cell viability 72 h ([24]; max 3 µM)	IC50, cell viability 72 h [25]	IC50, cell viability 72 h ([26]; max 3 µM)	IC50, cell viability 72 h [27]	IC50, cell viability 72 h [28]	IC50, cell viability 72 h [29]	IC50, cell viability 72 h [30]	IC50, cell viability 72 h [31]	IC50, cell viability 72 h [32]	IC50, cell viability 72 h [33]	IC50, cell viability 72 h [34]	IC50, cell viability 72 h [35]	IC50, cell viability 72 h ([24]; max 1 µM)	IC50, cell viability 72 h ([26]; max 1 µM)
MOG-G-UVW (Low Grade Glioma)	> 10 µM	> 1 µM	4.01 µM	3.69 µM	> 2 µM	> 0.001 µM	> 10 µM	> 10 µM	> 20 µM	0.0265 µM	> 10 µM	0.344 µM	1.6 µM	> 10 µM	0.148 µM	0.156 µM	> 10 µM	5.12 µM	> 10 µM	0.562 µM	9.25 µM	> 10 µM	0.34 µM	0.582 µM	> 10 µM	> 3 µM	> 10 µM	> 1 µM	> 1 µM	0.0273 µM	> 5 µM	0.003 µM	> 1 µM	0.0117 µM	> 0.3 µM		
MOLT-4 (T-Lymphoblastic Leukemia)	> 10 µM	> 1 µM	2.11 µM	5.93 µM	> 2 µM	> 0.001 µM	2.31 µM	> 10 µM	12.8 µM	0.0132 µM	4.18 µM	0.0311 µM	0.123 µM	7.92 µM	> 1 µM	0.057 µM	6.71 µM	1.69 µM	> 10 µM	0.0376 µM	> 10 µM	> 10 µM	> 1 µM	0.428 µM	> 10 µM	> 3 µM	> 10 µM	> 1 µM	0.0931 µM	0.0583 µM	> 5 µM	0.0066 µM	> 1 µM	0.00299 µM	> 0.3 µM		
MV-4-11 (Acute Myeloid Leukemia)	3.35 µM	> 1 µM	1.88 µM	7.86 µM	> 2 µM	> 0.001 µM	1.29 µM	> 10 µM	0.939 µM	0.0171 µM	4.43 µM	0.0206 µM	0.149 µM	1 µM	0.0703 µM	0.0331 µM	7.87 µM	0.994 µM	4.16 µM	0.0355 µM	> 10 µM	> 10 µM	0.0242 µM		> 10 µM		> 10 µM	0.0059 µM	0.00174 µM	0.00343 µM	1.35 µM	0.00397 µM	0.00799 µM	0.00299 µM	> 0.3 µM	0.503 µM	> 1 µM
